Earlier results as cited in patent US7125861B2, “Water-soluble chitosan-indole-3-propionic acid conjugates” (priority 2003, dated 2006).

Details: background statement on unconjugated indole-3-propionic acid

For `O=C(O)CCc1c[nH]c2ccccc12` [indole-3-propionic acid, 3-(3-Indolyl)propanoic acid], the solubility in water is listed as “not water soluble”.
